Assay results taken from ChEMBL document CHEMBL4145665, “Structure-Activity Relationship of Novel and Selective Biaryl-Chroman GPR40 AgoPAMs” (ACS Med Chem Lett, 2018).

Legend:
[1] = biological target: T1, Free fatty acid receptor 1 (Homo sapiens, UniProt O14842); assay: Agonist activity at recombinant human GPR40 expressed in HEK293 cells assessed as increase in IP1 accumulation measured after 60 mins in presence of 100% human serum by HTRF assay; assay type: functional, cell-based
[2] = Volume of distribution at steady state in Wistar-Han rat at 1 mg/kg, iv or 2 mg/kg, po administered as single dose; assay type: ADME, organism-based; settings: in vivo, read-out: Vdss
Rattus norvegicus [3] = assay: Antidiabetic activity in po dosed Goto Kakizaki rats assessed as reduction in blood glucose excursion pretreated for 1 hr followed by dextrose challenge measured after 20 to 60 mins by OGTT method; assay type: functional; settings: read-out: MED
[4] = Oral bioavailability in Wistar-Han rat at 2 mg/kg administered as single dose; assay type: ADME, organism-based; settings: in vivo
[5] = biological target: T2, Free fatty acid receptor 4 (Homo sapiens, UniProt Q5NUL3); assay: Agonist activity at GPR120 (unknown origin); assay type: functional
T2 sequence (Q5NUL3 whole entry): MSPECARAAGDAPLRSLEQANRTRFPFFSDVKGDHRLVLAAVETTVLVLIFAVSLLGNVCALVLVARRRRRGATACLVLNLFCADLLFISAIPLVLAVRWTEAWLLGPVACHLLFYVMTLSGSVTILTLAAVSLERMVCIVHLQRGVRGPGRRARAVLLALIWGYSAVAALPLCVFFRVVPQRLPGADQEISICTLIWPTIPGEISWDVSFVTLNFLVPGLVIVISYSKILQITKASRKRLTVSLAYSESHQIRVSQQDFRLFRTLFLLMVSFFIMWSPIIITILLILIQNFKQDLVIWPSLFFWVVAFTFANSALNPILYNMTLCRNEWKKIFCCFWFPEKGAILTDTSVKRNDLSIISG

[6] = biological target: Free fatty acid receptor 1 (Rattus norvegicus, UniProt Q8K3T4); assay: Agonist activity at recombinant rat GPR40 expressed in CHOK1 cells assessed as increase in IP1 accumulation measured after 60 mins by HTRF assay; assay type: functional, cell-based
[7] = Effective half life in Wistar-Han rat at 1 mg/kg, iv or 2 mg/kg, po administered as single dose; assay type: ADME, organism-based; settings: in vivo, read-out: t1/2eff (converted)
[8] = biological target: T1, Free fatty acid receptor 1; assay: Agonist activity at recombinant human GPR40 expressed in HEK293 cells assessed as increase in IP1 accumulation measured after 60 mins by HTRF assay; assay type: functional, cell-based
[9] = Clearance in Wistar-Han rat at 1 mg/kg, iv or 2 mg/kg, po administered as single dose; assay type: ADME, organism-based; settings: in vivo
[10] = Fraction unbound in Wistar-Han rat plasma at 1 mg/kg, iv or 2 mg/kg, po administered as single dose; assay type: ADME, organism-based
Rattus norvegicus [11] = assay: Antidiabetic activity in Sprague-Dawley rat assessed as inhibition of blood glucose AUC at 3 mg/kg, po treated prior to dextrose challenge and measured after 20 to 60 mins by IPGTT relative to control; assay type: functional
[12] = Lipophilicity, log D of the compound at pH 7 at 100 uM by HPLC method; assay type: physicochemical; settings: buffer
Bile salt export pump = Bile salt export pump (Homo sapiens, UniProt O95342); assay: Inhibition of human BSEP expressed in baculovirus infected Sf9 insect cell membrane vesicles assessed as reduction in ATP-dependent [3H]-taurocholic acid uptake; assay type: ADME
Rattus norvegicus [13] = assay: Antidiabetic activity in Goto Kakizaki rats assessed as inhibition of blood glucose AUC at 1 mg/kg, po pretreated for 1 hr followed by dextrose challenge measured after 20 to 60 mins by OGTT method relative to control; assay type: functional
Rattus norvegicus [14] = assay: Antidiabetic activity in Goto Kakizaki rats assessed as inhibition of blood glucose AUC at 0.3 mg/kg, po pretreated for 1 hr followed by dextrose challenge measured after 20 to 60 mins by OGTT method relative to control; assay type: functional
Rattus norvegicus [15] = assay: Antidiabetic activity in Goto Kakizaki rats assessed as inhibition of blood glucose AUC at 10 mg/kg, po pretreated for 1 hr followed by dextrose challenge measured after 20 to 60 mins by OGTT method relative to control; assay type: functional
Rattus norvegicus [16] = assay: Antidiabetic activity in Goto Kakizaki rats assessed as inhibition of blood glucose AUC at 30 mg/kg, po pretreated for 1 hr followed by dextrose challenge measured after 20 to 60 mins by OGTT method relative to control; assay type: functional
Rattus norvegicus [17] = assay: Antidiabetic activity in Goto Kakizaki rats assessed as inhibition of blood glucose AUC at 3 mg/kg, po pretreated for 1 hr followed by dextrose challenge measured after 20 to 60 mins by OGTT method relative to control; assay type: functional
Rattus norvegicus [18] = assay: Antidiabetic activity in Goto Kakizaki rats assessed as plasma concentration required for reduction in blood glucose excursion at 10 mg/kg, po pretreated for 1 hr followed by dextrose challenge measured 3 hrs post dose by OGTT; assay type: functional, organism-based
Rattus norvegicus [19] = assay: Antidiabetic activity in Goto Kakizaki rats assessed as plasma concentration required for reduction in blood glucose excursion at 3 mg/kg, po pretreated for 1 hr followed by dextrose challenge measured 3 hrs post dose by OGTT; assay type: functional, organism-based
Rattus norvegicus [20] = assay: Antidiabetic activity in Goto Kakizaki rats assessed as plasma concentration required for reduction in blood glucose excursion at 30 mg/kg, po pretreated for 1 hr followed by dextrose challenge measured 3 hrs post dose by OGTT; assay type: functional, organism-based
Rattus norvegicus [21] = assay: Antidiabetic activity in Goto Kakizaki rats assessed as plasma concentration required for reduction in blood glucose excursion at 0.3 mg/kg, po pretreated for 1 hr followed by dextrose challenge measured 3 hrs post dose by OGTT; assay type: functional, organism-based
[22] = biological target: Free fatty acid receptor 1 (Rattus norvegicus) (UniProt Q8K3T4); assay: Agonist activity at recombinant rat GPR40 expressed in CHOK1 cells assessed as increase in IP1 accumulation measured after 60 mins by HTRF assay relative to AM-1638; assay type: functional, cell-based
Rattus norvegicus [23] = assay: Antidiabetic activity in Goto Kakizaki rats assessed as plasma concentration required for reduction in blood glucose excursion at 1 mg/kg, po pretreated for 1 hr followed by dextrose challenge measured 3 hrs post dose by OGTT; assay type: functional, organism-based
Rattus norvegicus [24] = assay: Antidiabetic activity in po dosed Goto Kakizaki rats assessed as plasma concentration required for reduction in blood glucose excursion at MED pretreated for 1 hr followed by dextrose challenge measured 3 hrs post dose by OGTT; assay type: functional, organism-based
[25] = biological target: T1, Free fatty acid receptor 1; assay: Agonist activity at recombinant human GPR40 expressed in HEK293 cells assessed as increase in IP1 accumulation measured after 60 mins by HTRF assay relative to AM-1638; assay type: functional, cell-based
[26] = biological target: T1, Free fatty acid receptor 1; assay: Agonist activity at recombinant human GPR40 expressed in HEK293 cells assessed as increase in IP1 accumulation measured after 60 mins in presence of 100% human serum by HTRF assay relative to AM-1638; assay type: functional, cell-based

Sequence of Bile salt export pump (O95342 whole entry): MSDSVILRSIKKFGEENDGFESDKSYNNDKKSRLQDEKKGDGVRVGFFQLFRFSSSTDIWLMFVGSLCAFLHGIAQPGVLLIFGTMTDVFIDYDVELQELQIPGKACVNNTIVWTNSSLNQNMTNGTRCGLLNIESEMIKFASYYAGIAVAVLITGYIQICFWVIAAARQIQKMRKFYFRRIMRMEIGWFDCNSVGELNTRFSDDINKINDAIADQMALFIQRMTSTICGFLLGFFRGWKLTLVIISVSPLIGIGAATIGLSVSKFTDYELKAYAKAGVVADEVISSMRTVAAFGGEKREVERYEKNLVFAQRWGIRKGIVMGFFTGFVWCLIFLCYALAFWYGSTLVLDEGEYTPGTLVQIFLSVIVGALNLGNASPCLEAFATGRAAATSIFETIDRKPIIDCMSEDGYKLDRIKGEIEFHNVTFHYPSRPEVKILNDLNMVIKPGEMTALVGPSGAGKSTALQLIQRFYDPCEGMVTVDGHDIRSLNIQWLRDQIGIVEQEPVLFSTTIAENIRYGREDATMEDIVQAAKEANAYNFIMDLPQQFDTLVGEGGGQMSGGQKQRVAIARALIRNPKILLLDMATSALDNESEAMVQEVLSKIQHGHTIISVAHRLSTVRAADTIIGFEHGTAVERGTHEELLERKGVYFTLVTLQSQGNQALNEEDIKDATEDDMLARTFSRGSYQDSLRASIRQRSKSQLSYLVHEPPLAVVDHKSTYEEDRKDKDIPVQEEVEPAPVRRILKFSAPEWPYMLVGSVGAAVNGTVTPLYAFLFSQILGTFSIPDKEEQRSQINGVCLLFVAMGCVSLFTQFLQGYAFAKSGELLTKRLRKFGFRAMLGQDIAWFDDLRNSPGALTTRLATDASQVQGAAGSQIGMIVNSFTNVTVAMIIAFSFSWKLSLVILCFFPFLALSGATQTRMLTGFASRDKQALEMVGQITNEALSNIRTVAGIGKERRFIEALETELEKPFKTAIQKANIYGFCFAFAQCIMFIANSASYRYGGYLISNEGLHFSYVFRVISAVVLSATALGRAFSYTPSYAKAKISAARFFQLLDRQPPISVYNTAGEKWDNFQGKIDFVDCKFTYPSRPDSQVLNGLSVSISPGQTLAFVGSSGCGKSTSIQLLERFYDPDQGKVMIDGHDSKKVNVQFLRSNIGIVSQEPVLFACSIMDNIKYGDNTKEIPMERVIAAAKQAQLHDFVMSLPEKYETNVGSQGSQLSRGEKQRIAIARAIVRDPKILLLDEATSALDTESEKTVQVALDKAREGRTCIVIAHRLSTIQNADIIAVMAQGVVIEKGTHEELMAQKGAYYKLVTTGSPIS
Sequence of Free fatty acid receptor 1 (Rattus norvegicus, UniProt Q8K3T4) (Q8K3T4 whole entry): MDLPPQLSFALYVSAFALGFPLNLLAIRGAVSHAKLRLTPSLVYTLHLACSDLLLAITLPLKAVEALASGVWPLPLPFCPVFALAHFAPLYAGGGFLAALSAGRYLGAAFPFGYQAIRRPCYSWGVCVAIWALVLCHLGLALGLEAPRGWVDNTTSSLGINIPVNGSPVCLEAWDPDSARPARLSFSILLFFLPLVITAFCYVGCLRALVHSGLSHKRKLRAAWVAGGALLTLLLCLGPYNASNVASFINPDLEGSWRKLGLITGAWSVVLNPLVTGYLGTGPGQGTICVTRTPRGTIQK
T1 sequence (O14842 whole entry): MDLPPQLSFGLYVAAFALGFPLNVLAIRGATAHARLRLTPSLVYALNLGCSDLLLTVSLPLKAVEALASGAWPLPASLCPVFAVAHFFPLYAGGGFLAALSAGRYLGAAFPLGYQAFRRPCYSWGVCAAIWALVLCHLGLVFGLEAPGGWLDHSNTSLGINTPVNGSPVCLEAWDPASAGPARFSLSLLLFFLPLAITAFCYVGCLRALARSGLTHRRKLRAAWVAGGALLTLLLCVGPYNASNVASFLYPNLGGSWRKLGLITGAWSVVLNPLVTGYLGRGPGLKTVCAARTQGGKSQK
Sequence of Free fatty acid receptor 1 (Rattus norvegicus) (Q8K3T4 whole entry): as the sequence (Q8K3T4 whole entry) above

| EC50 [5] [µM] | EC50 [6] [µM] | fraction unbound [10] | SMILES | EC50 [1] [µM] | Vd [2] [L/kg] | minimal effective dose (Rattus norvegicus [3]) [mg/kg] | bioavailability [4] [%] | half-life [7] [h] | EC50 [8] [µM] | clearance [9] [mL/min/kg] | inhibition (INH) (Rattus norvegicus [11]) [%] | logD at 100 µM [12] | IC50 (Bile salt export pump) [µM] | other results |
| --- | --- | --- | --- | --- | --- | --- | --- | --- | --- | --- | --- | --- | --- | --- |
| > 10 | 0.0052 | 0.001 | COc1cc(-c2ccc(C3CCc4ccc([C@H](C5CC5)[C@H](C)C(=O)[O-])cc4O3)nc2)c(F)cn1.[Na+] (stereo in doubt; 29) | 0.243 | 0.41 | 30 | 100 | 6.4 | 0.0027 | 1.2 |  |  | 3.2 | inhibition in vivo at 1 mg/kg (Rattus norvegicus [13]): 69%; inhibition in vivo at 0.3 mg/kg (Rattus norvegicus [14]): 35%; inhibition in vivo at 10 mg/kg (Rattus norvegicus [15]): 111%; inhibition in vivo at 30 mg/kg (Rattus norvegicus [16]): 121%; inhibition in vivo at 3 mg/kg (Rattus norvegicus [17]): 96%; inhibition in vivo at 3 mg/kg (Rattus norvegicus [11]; Rattus norvegicus, Sprague-Dawley, po): 108% |
| > 10 | 0.0023 | 0.003 | COc1ccc(F)c(-c2ccc(C3CCc4ccc([C@H](C5CC5)[C@H](C)C(=O)[O-])cc4O3)nc2)c1.[Na+] (stereo in doubt; 16) |  |  | 30 |  |  |  |  | 99 | 2.25 | 0.3 |  |
|  |  |  | COc1cc(-c2ccc(C3CCc4ccc([C@H](C5CC5)[C@H](C)C(=O)O)cc4O3)nc2)c(F)cn1 (stereo in doubt; 29) |  |  |  |  |  |  |  |  |  |  | Cp (Rattus norvegicus [18]): 11 µM; Cp (Rattus norvegicus [19]): 5.4 µM; Cp (Rattus norvegicus [20]): 32 µM; Cp (Rattus norvegicus [21]): 0.44 µM; max activation [22]: > 370%; Cp (Rattus norvegicus [23]): 2 µM; Cp (Rattus norvegicus [24]): 32 µM; max activation [25]: > 179%; max activation [26]: > 179% |

| SMILES | EC50 [5] [µM] | EC50 [6] [µM] | fraction unbound [10] | EC50 [1] [µM] | Vd [2] [L/kg] | minimal effective dose (Rattus norvegicus [3]) [mg/kg] | bioavailability [4] [%] | half-life [7] [h] | EC50 [8] [µM] | clearance [9] [mL/min/kg] | inhibition (INH) (Rattus norvegicus [11]) [%] | logD at 100 µM [12] | IC50 (Bile salt export pump) [µM] | other results |
| --- | --- | --- | --- | --- | --- | --- | --- | --- | --- | --- | --- | --- | --- | --- |
| COc1ccc(F)c(-c2ccc(C3CCc4ccc([C@H](C5CC5)[C@H](C)C(=O)[O-])cc4O3)cc2)c1.[Na+] (stereo in doubt; 14) | > 10 | 0.0012 | 0.005 | 0.146 | 0.41 | 10 | 50 | 3.5 | 0.0011 | 3.1 | 103 | 2.94 | 1.4 |  |
